Test results reported in paper PMC5418449, “Characterisation of CCT271850, a selective, oral and potent MPS1 inhibitor, used to directly measure in vivo MPS1 inhibition vs therapeutic efficacy” (British Journal of Cancer, 2017).

Columns and labels:
011A = tested on: 011A; set-up: 14-day clonogenic growth inhibition assay, human cancer cell line panel; conditions: 14-day clonogenic assay; inhibitor; read-out: Table S1. IC50 of CCT271850 determined by MTT and clonogenic assays (CA). / All cell lines were tested at least 2 times. / 14-day CA
Description: To evaluate CCT271850 antiproliferation effects in a large panel of human cancer cell lines, 91 cell lines were treated for 72 h and 14 days at different compound concentrations in growth inhibition assays. The growth inhibition values as measured by IC50 are summarised in Table 2 and Supplementary Table S1. […] Cell lines from colon and head and neck cancers were among the most sensitive.

011B = tested on: 011B; set-up: MTT antiproliferation assay, absorbance at 570 nm, human cancer cell line panel; conditions: 3-day MTT; inhibitor; read-out: Table S1. IC50 of CCT271850 determined by MTT and clonogenic assays (CA). / All cell lines were tested at least 2 times. / 3-day MTT
Description: (§1) Cell lines were obtained from the American Type Culture Collection and grown in their recommended culture medium, supplemented with 10% FBS at 37 °C in 5% CO2. In-house authentication of cell lines by SNP profiling was carried out and cultured cells were passaged for less than 6 months before replacement from early-passage frozen stocks. Cells were regularly screened for Mycoplasma, using a PCR-based assay (VenorGem; Minerva Biolabs, Berlin, Germany). Transfections were carried out at ∼80% confluency with the plasmids indicated, using Lipofectamine LTX (15338030, Life Technologies, Carlsbad, CA, USA) according to the manufacturer's instructions. Cell proliferation assays were carried out by colorimetric MTT method (Sigma, St Louis, MO, USA) as described elsewhere ([Mosmann, 1983]). Briefly, cells were plated in 96-well plates at 2000–5000 cells per well (depending on the cell line) followed by treatment with two-fold dilutions of 0–25 μM drug for 72 h. Absorbance was measured at 570 nm with the Wallac VICTOR2 1420 Multilabel Counter (PerkinElmer, Waltham, MA, USA). To evaluate CCT271850 antiproliferation effects in a large panel of human cancer cell lines, 91 cell lines were treated for 72 h and 14 days at different compound concentrations in growth inhibition assays. The growth inhibition values as measured by IC50 are summarised in Table 2 and Supplementary Table S1. […] Cell lines from colon and head and neck cancers were among the most sensitive.

AspC-1 = tested on: AspC-1; set-up: MTT antiproliferation assay, absorbance at 570 nm, human cancer cell line panel; conditions: 3-day MTT; inhibitor; read-out: Table S1. IC50 of CCT271850 determined by MTT and clonogenic assays (CA). / All cell lines were tested at least 2 times. / 3-day MTT
Description: as §1

TYK-Nu = tested on: TYK-Nu; set-up: MTT antiproliferation assay, absorbance at 570 nm, human cancer cell line panel; conditions: 3-day MTT; inhibitor; read-out: Table S1. IC50 of CCT271850 determined by MTT and clonogenic assays (CA). / All cell lines were tested at least 2 times. / 3-day MTT
Description: as §1

PATU-8902 = tested on: PATU-8902; set-up: MTT antiproliferation assay, absorbance at 570 nm, human cancer cell line panel; conditions: 3-day MTT; inhibitor; read-out: Table S1. IC50 of CCT271850 determined by MTT and clonogenic assays (CA). / All cell lines were tested at least 2 times. / 3-day MTT
Description: as §1

CAL27 = tested on: CAL27; set-up: MTT antiproliferation assay, absorbance at 570 nm, human cancer cell line panel; conditions: 3-day MTT; inhibitor; read-out: Table S1. IC50 of CCT271850 determined by MTT and clonogenic assays (CA). / All cell lines were tested at least 2 times. / 3-day MTT
Description: as §1

OVCAR3 = tested on: OVCAR3; set-up: MTT antiproliferation assay, absorbance at 570 nm, human cancer cell line panel; conditions: 3-day MTT; inhibitor; read-out: Table S1. IC50 of CCT271850 determined by MTT and clonogenic assays (CA). / All cell lines were tested at least 2 times. / 3-day MTT
Description: as §1

EF027 = tested on: EF027; set-up: MTT antiproliferation assay, absorbance at 570 nm, human cancer cell line panel; conditions: 3-day MTT; inhibitor; read-out: Table S1. IC50 of CCT271850 determined by MTT and clonogenic assays (CA). / All cell lines were tested at least 2 times. / 3-day MTT
Description: as §1

TOV21G = tested on: TOV21G; set-up: MTT antiproliferation assay, absorbance at 570 nm, human cancer cell line panel; conditions: 3-day MTT; inhibitor; read-out: Table S1. IC50 of CCT271850 determined by MTT and clonogenic assays (CA). / All cell lines were tested at least 2 times. / 3-day MTT
Description: as §1

KGN = tested on: KGN; set-up: MTT antiproliferation assay, absorbance at 570 nm, human cancer cell line panel; conditions: 3-day MTT; inhibitor; read-out: Table S1. IC50 of CCT271850 determined by MTT and clonogenic assays (CA). / All cell lines were tested at least 2 times. / 3-day MTT
Description: as §1

Capan-1 = tested on: Capan-1; set-up: MTT antiproliferation assay, absorbance at 570 nm, human cancer cell line panel; conditions: 3-day MTT; inhibitor; read-out: Table S1. IC50 of CCT271850 determined by MTT and clonogenic assays (CA). / All cell lines were tested at least 2 times. / 3-day MTT
Description: as §1

Capan-2 = tested on: Capan-2; set-up: MTT antiproliferation assay, absorbance at 570 nm, human cancer cell line panel; conditions: 3-day MTT; inhibitor; read-out: Table S1. IC50 of CCT271850 determined by MTT and clonogenic assays (CA). / All cell lines were tested at least 2 times. / 3-day MTT
Description: as §1

OVCAR4 = tested on: OVCAR4; set-up: MTT antiproliferation assay, absorbance at 570 nm, human cancer cell line panel; conditions: 3-day MTT; inhibitor; read-out: Table S1. IC50 of CCT271850 determined by MTT and clonogenic assays (CA). / All cell lines were tested at least 2 times. / 3-day MTT
Description: as §1

HN3 = tested on: HN3; set-up: MTT antiproliferation assay, absorbance at 570 nm, human cancer cell line panel; conditions: 3-day MTT; inhibitor; read-out: Table S1. IC50 of CCT271850 determined by MTT and clonogenic assays (CA). / All cell lines were tested at least 2 times. / 3-day MTT
Description: as §1

Kuramochi = tested on: Kuramochi; set-up: MTT antiproliferation assay, absorbance at 570 nm, human cancer cell line panel; conditions: 3-day MTT; inhibitor; read-out: Table S1. IC50 of CCT271850 determined by MTT and clonogenic assays (CA). / All cell lines were tested at least 2 times. / 3-day MTT
Description: as §1

BxPC-3 = tested on: BxPC-3; set-up: MTT antiproliferation assay, absorbance at 570 nm, human cancer cell line panel; conditions: 3-day MTT; inhibitor; read-out: Table S1. IC50 of CCT271850 determined by MTT and clonogenic assays (CA). / All cell lines were tested at least 2 times. / 3-day MTT
Description: as §1

A2780 = tested on: A2780; set-up: MTT antiproliferation assay, absorbance at 570 nm, human cancer cell line panel; conditions: 3-day MTT; inhibitor; read-out: Table S1. IC50 of CCT271850 determined by MTT and clonogenic assays (CA). / All cell lines were tested at least 2 times. / 3-day MTT
Description: as §1

PATU-8988S = tested on: PATU-8988S; set-up: MTT antiproliferation assay, absorbance at 570 nm, human cancer cell line panel; conditions: 3-day MTT; inhibitor; read-out: Table S1. IC50 of CCT271850 determined by MTT and clonogenic assays (CA). / All cell lines were tested at least 2 times. / 3-day MTT
Description: as §1

HN6 = tested on: HN6; set-up: MTT antiproliferation assay, absorbance at 570 nm, human cancer cell line panel; conditions: 3-day MTT; inhibitor; read-out: Table S1. IC50 of CCT271850 determined by MTT and clonogenic assays (CA). / All cell lines were tested at least 2 times. / 3-day MTT
Description: as §1

005A = tested on: 005A; set-up: MTT antiproliferation assay, absorbance at 570 nm, human cancer cell line panel; conditions: 3-day MTT; inhibitor; read-out: Table S1. IC50 of CCT271850 determined by MTT and clonogenic assays (CA). / All cell lines were tested at least 2 times. / 3-day MTT
Description: as §1

PATU-8988T = tested on: PATU-8988T; set-up: MTT antiproliferation assay, absorbance at 570 nm, human cancer cell line panel; conditions: 3-day MTT; inhibitor; read-out: Table S1. IC50 of CCT271850 determined by MTT and clonogenic assays (CA). / All cell lines were tested at least 2 times. / 3-day MTT
Description: as §1

OAW42 = tested on: OAW42; set-up: MTT antiproliferation assay, absorbance at 570 nm, human cancer cell line panel; conditions: 3-day MTT; inhibitor; read-out: Table S1. IC50 of CCT271850 determined by MTT and clonogenic assays (CA). / All cell lines were tested at least 2 times. / 3-day MTT
Description: as §1

OVCAR8 = tested on: OVCAR8; set-up: MTT antiproliferation assay, absorbance at 570 nm, human cancer cell line panel; conditions: 3-day MTT; inhibitor; read-out: Table S1. IC50 of CCT271850 determined by MTT and clonogenic assays (CA). / All cell lines were tested at least 2 times. / 3-day MTT
Description: as §1

SKOV3 = tested on: SKOV3; set-up: MTT antiproliferation assay, absorbance at 570 nm, human cancer cell line panel; conditions: 3-day MTT; inhibitor; read-out: Table S1. IC50 of CCT271850 determined by MTT and clonogenic assays (CA). / All cell lines were tested at least 2 times. / 3-day MTT
Description: as §1

PJ34 = tested on: PJ34; set-up: MTT antiproliferation assay, absorbance at 570 nm, human cancer cell line panel; conditions: 3-day MTT; inhibitor; read-out: Table S1. IC50 of CCT271850 determined by MTT and clonogenic assays (CA). / All cell lines were tested at least 2 times. / 3-day MTT
Description: as §1

In the case of `COc1cc(-c2cnn(C)c2)ccc1Nc1ncc2ccnc(N[C@@H](C)C(C)(C)C)c2n1` [34h, CCT271850], the IC50 (011A) is reported as 0.02 µM, the IC50 (011B) is reported as 2.21 µM and the IC50 (AspC-1) is reported as 2.4 µM. For the same molecule, the IC50 (TYK-Nu) was 0.99 µM, the IC50 (PATU-8902) was 0.51 µM and the IC50 (CAL27) was 0.227 µM. For the same molecule, the IC50 (OVCAR3) was over 100 µM, the IC50 (EF027) was 0.787 µM and the IC50 (TOV21G) was 0.753 µM. For the same molecule, the IC50 (KGN) was 3.12 µM, the IC50 (Capan-1) was 2.05 µM and the IC50 (Capan-2) was 1.55 µM. For the same molecule, the IC50 (OVCAR4) was 4.95 µM, the IC50 (HN3) was 0.845 µM and the IC50 (Kuramochi) was 4.86 µM. For the same molecule, the IC50 (BxPC-3) was 0.525 µM, the IC50 (A2780) was 0.137 µM and the IC50 (PATU-8988S) was 2.02 µM. For the same molecule, the IC50 (HN6) was 0.33 µM, the IC50 (005A) was 0.94 µM and the IC50 (PATU-8988T) was 0.665 µM. It also gave an IC50 (OAW42) of 0.88 µM, an IC50 (OVCAR8) of 1.23 µM and an IC50 (SKOV3) of over 100 µM. It also gave an IC50 (PJ34) of 1.12 µM.
